We go through 25 compounds from patent US7947695B2, “5-membered annelated heterocyclic pyrimidines as kinase inhibitors” (Janssen Pharmaceutica NV, priority 2005, dated 2011).

What all share (assay type): biochemical
Experiment [1] deals with CDK4/cyclinD1 enzyme complex (Homo sapiens, UniProt P11802). Kind of experiment: In vitro scintillation proximity assay (SPA) for CDK4 inhibitory activity. The conditions noted are these: GST-pRb substrate, 33P-ATP, 25° C. 30 minutes, read-out: cdk4 SPA see C.4 (pIC50) (converted). The method, then: Compounds of the present invention were tested in an in vitro assay based on SPA technology.
In principle, the assay relies upon the well established SPA technology for the detection of CDK4 phosphorylated proteins, i.e pRb. This phosphorylation is performed using I0 CDK4/cyclinD1 enzyme complex and ^33P-ATP as phosphor donor.
The CDK4 SPA kinase reaction is performed at 25° C. for 30 minutes in a 96-well microtiter plate. The 100 μl reaction volume contains 40 mM Hepes, 6 mM NaF, 6 mM MgCl2, 0.6 mM Na3VO4, 2 μg/ml Pepstatin, 2 μg/ml Leupeptin, 2 μg/ml Aprotinin, 50 μg/ml TLCK, 150 μg/ml DTT, 0.3 μg/ml benzamide, 0.1 μCi ^33P-ATP, 1.7 μg GST-pRb, 50 ng CDK4/cyclinD1/well and 0.2% compound in 100% DMSO. The reaction is stopped by adding to each well 100 μl of the glutathione coated SPA beads (10 mg/ml in PBS+10 mM EDTA+100 μM ATP+0.05% Triton X 100). The plates are then shaked at 300 rpm for 30 min to allow binding of the GST-tagged substrate to the glutathione coated beads. The beads are allowed to settle at the bottom of the plate for 30 minutes. The microtiterplates are centrifuges at 800 rpm for 10 minutes and the amount of phosphorylated (^33P) substrate is determined by counting (30 sec/well) in a microtiterplate scintillation counter.
(§1) For each experiment, controls (containing enzyme (complex) and DMSO without compound), a blank incubation (containing DMSO but no enzyme (complex) or compound) and samples (containing enzyme (complex) and compound dissolved in DMSO) were run in parallel. All compounds tested were dissolved and eventually further diluted in DMSO. […] In each test, the blank value was subtracted from both the control and the sample values. The control sample represented maximal enzyme activity. For each sample, the amount of cpm was expressed as a percentage of the mean cpm value of the controls. When appropriate, IC50-values (concentration of the drug, needed to reduce the enzyme activity to 50% of the control) were computed using linear interpolation between the experimental points just above and below the 50% level. Herein the effects of test compounds are expressed as pIC50 (the negative log value of the IC50-value).

For the next experiment, the target named is T1, AURORA A (Homo sapiens, UniProt O14965).
T1 sequence (O14965 1-403): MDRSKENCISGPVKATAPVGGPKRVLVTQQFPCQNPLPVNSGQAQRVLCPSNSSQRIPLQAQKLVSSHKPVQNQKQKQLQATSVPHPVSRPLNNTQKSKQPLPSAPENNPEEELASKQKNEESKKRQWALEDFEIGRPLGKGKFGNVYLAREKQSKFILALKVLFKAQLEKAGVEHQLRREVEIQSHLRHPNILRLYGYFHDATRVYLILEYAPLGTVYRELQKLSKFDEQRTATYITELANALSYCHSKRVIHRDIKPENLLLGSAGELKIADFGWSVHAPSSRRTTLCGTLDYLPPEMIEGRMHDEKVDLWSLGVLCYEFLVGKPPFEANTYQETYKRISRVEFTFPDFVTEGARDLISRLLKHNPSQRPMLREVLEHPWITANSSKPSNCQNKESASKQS
Kind of experiment: In vitro filtration assay for AURORA A inhibitory activity. The following applies: Kemptide substrate, 1 μM unlabeled ATP, 25° C. 40 minutes, read-out: Aurora A see C.2 (pIC50) (converted). The method, then:
Compounds of the present invention were tested in an in vitro filtration assay assessing AURORA A activity by means of its substrate-phosphorylation activity using [^33P]-ATP as phosphor donor. The radioactive phosphorylated substrate is then captured on filtermats and the incorporated [^33P] quantitated using a phosphorage storage screen.
The Aurora-A kinase reaction is performed at 25° C. for 40 minutes in a 96-well microtiterplate. The 25 μl reaction volume contains 12 mM MOPS pH 7, 0.4 mM EDTA, 0.002% Brij35, 1% glycerol, 0.02% beta-mercapto-ethanol, 0.2 mg/ml BSA, 1 μM unlabeled ATP, […] [^33P]-ATP, 200 μM Kemptide, 3 ng Aurora A/well and 0.2% compound in 100% DMSO.
(§2) The reaction is stopped by adding 5 μl of a 3% phosphoric acid solution. 10 μl of the reaction mixture is then spotted onto a Filtermat P30 filter (Wallac) and washed 3 times for 5 min. in 75 mM phosphoric acid and 1 time for 5 min. in methanol prior to drying and quantification on the Typhoon (Amersham) using a phosphorage storage screen.
as §1

In the next experiment the target is AURORA B (Homo sapiens, UniProt Q96GD4). The experiment can be described thus: In vitro filtration assay for AURORA B inhibitory activity. The conditions noted are these: peptide (C(LRRWSLG)×4), 1 μM unlabeled ATP, 25° C. 40 minutes, read-out: Aurora B see C.3 (pIC50) (converted). How it is done: Compounds of the present invention were tested in an in vitro filtration assay assessing AURORA B activity by means of its substrate-phosphorylation activity using [^33P]-ATP as phosphor donor. The radioactive phosphorylated substrate is then captured on filtermats and the incorporated [^33P] quantitated using a phosphorage storage screen.
The Aurora-B kinase reaction is performed at 25° C. for 40 minutes in a 96-well microtiterplate. The 25 μl reaction volume contains 60 mM Hepes pH 7.5, 3 mM MgCl2, 3 mM MnCl2, 3 μM Na3VO4, 50 μg/ml PEG20000, 1 μM unlabeled ATP, 1 mM DTT, 0.2 μCi AT^33P, 0.25 μg/well peptide (C(LRRWSLG)×4),100 ng Aurora-B/well and 0.2% compound in 100% DMSO. The reaction is stopped by adding 5 μl of a 3% phosphoric acid solution. 10 μl of the reaction mixture is then spotted onto a Filtermat P30 filter (Wallac) and washed 3 times for 5 min. in 75 mM phosphoric acid and 1 time for 5 min. in methanol prior to drying and quantification on the Typhoon (Amersham) using a phosphorage storage screen.
as §1

A further experiment addresses CDK4/cyclinD1 (Homo sapiens, UniProt P11802). Kind of experiment: In vitro filtration assay for CDK4 inhibitory activity (pRb phosphorylation, [33P]-ATP). The following applies: GST-pRb substrate, 1 μM unlabeled ATP, 25° C. 45 minutes, read-out: cdk4 filter (pIC50) (converted). How it is done:
Compounds of the present invention were tested in an in vitro filtration assay assessing CDK4 activity by means of its pRb-phosphorylation activity using [^33P]-ATP as phosphor donor. The radioactive phosphorylated pRb is then captured on filtermats and the incorporated [^33P] quantitated using a phosphorage storage screen.
The CDK4 kinase reaction is performed at 25° C. for 45 minutes in a 96-well microtiterplate. The 25 μl reaction volume contains 50 mM Hepes pH 7.5, 10 mM NaF, 10 mM MgCl2, 1 mM Na3VO4, 1 μM unlabeled ATP, 1 mM DTT, 0.5 μCi AT^33P, 0.76 μg/well GST-pRb, 50 ng CDK4/cyclinD1/well and 0.2% compound in 100% DMSO.
as §2, §1

AURORA B, sequence (Q96GD4 whole entry): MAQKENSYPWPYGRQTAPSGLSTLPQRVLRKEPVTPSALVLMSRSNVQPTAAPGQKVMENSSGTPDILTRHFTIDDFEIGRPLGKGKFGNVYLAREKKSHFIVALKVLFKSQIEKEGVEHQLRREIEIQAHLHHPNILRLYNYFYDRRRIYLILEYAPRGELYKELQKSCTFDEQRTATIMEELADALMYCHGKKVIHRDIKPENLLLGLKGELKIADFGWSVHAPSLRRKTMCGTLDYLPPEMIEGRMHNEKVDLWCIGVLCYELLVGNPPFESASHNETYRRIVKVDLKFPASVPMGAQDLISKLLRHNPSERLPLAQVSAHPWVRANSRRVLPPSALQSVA
CDK4/cyclinD1 enzyme complex, sequence (P11802 whole entry): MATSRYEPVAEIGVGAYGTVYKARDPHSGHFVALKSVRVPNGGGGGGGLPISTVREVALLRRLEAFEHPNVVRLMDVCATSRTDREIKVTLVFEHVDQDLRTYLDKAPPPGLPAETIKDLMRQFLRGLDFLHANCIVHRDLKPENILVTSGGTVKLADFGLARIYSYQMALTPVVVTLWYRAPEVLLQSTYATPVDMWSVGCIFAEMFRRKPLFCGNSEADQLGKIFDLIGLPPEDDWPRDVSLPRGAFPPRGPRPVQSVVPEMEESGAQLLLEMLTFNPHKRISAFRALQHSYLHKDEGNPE
CDK4/cyclinD1 enzyme complex, sequence (P24385 whole entry partner): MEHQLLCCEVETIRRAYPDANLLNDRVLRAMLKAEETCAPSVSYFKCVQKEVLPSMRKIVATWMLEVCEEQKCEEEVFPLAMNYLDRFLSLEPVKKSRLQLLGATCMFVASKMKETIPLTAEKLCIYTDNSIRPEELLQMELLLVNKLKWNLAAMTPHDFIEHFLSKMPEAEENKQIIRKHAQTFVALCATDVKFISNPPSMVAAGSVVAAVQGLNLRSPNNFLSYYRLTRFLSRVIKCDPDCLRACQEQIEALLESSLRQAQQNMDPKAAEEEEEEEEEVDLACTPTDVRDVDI
CDK4/cyclinD1, sequence (P11802 whole entry): as the sequence (P11802 whole entry) above
CDK4/cyclinD1, sequence (P24385 whole entry partner): as the sequence (P24385 whole entry partner) above

As to `OCCCC1CCN(c2ccc(Nc3ncc4cnn(C5CCCCC5)c4n3)cc2)CC1` [compound 10], the IC50 was 0.0126 µM in experiment [1], 0.0501 µM at AURORA A, above 10 µM on AURORA B and 0.0794 µM at CDK4/cyclinD1.

As for `CN1CCN(c2ccc(Nc3ncc4cnn(C5CCCC5)c4n3)cc2)CC1` [compound 11], the IC50 in experiment [1] is 0.00631 µM; at AURORA A, 0.158 µM; at AURORA B, 0.398 µM; at CDK4/cyclinD1, 0.0316 µM.

Regarding `c1cc(N2CCOCC2)ccc1Nc1ncc2cnn(C3CCCCC3)c2n1` [compound 12], the IC50 in experiment [1] was 0.02 µM; on AURORA A, 0.0631 µM; on AURORA B, 0.251 µM; on CDK4/cyclinD1, 0.0398 µM.

On to `OCCCC1CCN(c2ccc(Nc3ncc4cnn(C5CCCC5)c4n3)cc2)CC1` [compound 13], for which the IC50 in experiment [1] is 0.0501 µM; on AURORA A, 0.0501 µM; at AURORA B, above 10 µM; on CDK4/cyclinD1, 0.0631 µM.

As to `CN1CCC(NCc2ccc(N(C(=O)OC(C)(C)C)c3ncc4cnn(C5CCOCC5)c4n3)cc2)CC1` [compound 72], the IC50 at AURORA A, at AURORA B and at CDK4/cyclinD1 was above 10 µM each time.

For the compound `CN1CCC(NCc2ccc(Nc3ncc4cnn(C5CCOCC5)c4n3)cc2)CC1` [compound 73], the IC50 on AURORA A is above 10 µM; at AURORA B, above 10 µM; on CDK4/cyclinD1 it was 0.631 µM.

Turning to `OCCN1CCC(NCc2ccc(Nc3ncc4cnn(C5CCCCC5)c4n3)cc2)CC1` [compound 75], the IC50 at AURORA A is 1.58 µM; at AURORA B it was 1.26 µM; on CDK4/cyclinD1, 0.126 µM.

On to `COCCCN1CCC(NCc2ccc(N(C(=O)OC(C)(C)C)c3ncc4cnn(C5CCCCC5)c4n3)cc2)CC1` [compound 76], for which the IC50 at AURORA A, at AURORA B and on CDK4/cyclinD1 was above 10 µM throughout.

For the compound `COCCCN1CCC(NCc2ccc(Nc3ncc4cnn(C5CCCCC5)c4n3)cc2)CC1` [compound 77], the IC50 at AURORA A was above 10 µM; at AURORA B, 2 µM; at CDK4/cyclinD1, 0.0794 µM.

For the compound `O=c1[nH]c2cnc(Nc3ccc(N4CCOCC4)cc3)nc2n1C1CCCCC1` [compound 78], the IC50 is 0.631 µM in experiment [1] and 1 µM on CDK4/cyclinD1.

Consider `CN1CCN(Cc2ccc(Nc3ncc4[nH]c(=O)n(C5CCCCC5)c4n3)cc2)CC1` [compound 79], for which the results for the IC50 on AURORA A, at AURORA B and at CDK4/cyclinD1 were above 10 µM, above 10 µM and 2 µM, respectively.

On to `CC(=O)N1CCN(c2ccc(Nc3ncc4[nH]c(=O)n(C5CCCCC5)c4n3)cc2)CC1` [compound 80], for which the IC50 on AURORA A is 2.51 µM; at AURORA B, above 10 µM; on CDK4/cyclinD1, 3.98 µM.

For `O=c1[nH]c2cnc(Nc3ccc(N4CCOCC4)nc3)nc2n1C1CCCCC1` [compound 81], the results for the IC50 on AURORA A, on AURORA B and on CDK4/cyclinD1 were above 10 µM, above 10 µM and 5.01 µM, respectively.

With `CN(C)CCOC(=O)c1ccc(Nc2ncc3[nH]c(=O)n(C4CCCCC4)c3n2)cc1` [compound 82], the figures for the IC50 on AURORA A, on AURORA B and at CDK4/cyclinD1 were above 10 µM, above 10 µM and 2 µM, respectively.

As for `CN1CCN(C(=O)c2ccc(Nc3ncc4[nH]c(=O)n(C5CCCCC5)c4n3)cc2)CC1` [compound 83], the IC50 on AURORA A is above 10 µM; on AURORA B, above 10 µM; at CDK4/cyclinD1, 2.51 µM.

`CN1CCN(c2ccc(Nc3ncc4[nH]c(=O)n(C5CCCCC5)c4n3)cc2Cl)CC1` [compound 84]: the values for the IC50 on AURORA A, at AURORA B and at CDK4/cyclinD1 were 6.31 µM, above 10 µM and 0.631 µM, respectively.

For the compound `O=c1[nH]c2cnc(Nc3ccc(S(=O)(=O)N4CCOCC4)cc3)nc2n1C1CCCCC1` [compound 85], the IC50 on AURORA A was 3.16 µM; on AURORA B it was above 10 µM; at CDK4/cyclinD1, above 10 µM.

On to `O=c1[nH]c2cnc(Nc3ccc(CNC4CCNCC4)cc3)nc2n1C1CCCCC1` [compound 86], for which the IC50 is 5.01 µM at AURORA A, above 10 µM on AURORA B and 2.51 µM at CDK4/cyclinD1.

For the compound `CN1CCC(NCc2ccc(Nc3ncc4[nH]c(=O)n(C5CCCCC5)c4n3)cc2)CC1` [compound 87], the results for the IC50 on AURORA A, at AURORA B and at CDK4/cyclinD1 were above 10 µM, above 10 µM and 3.98 µM, respectively.

For the compound `CN1CCN(c2ccc(Nc3ncc4[nH]c(=O)n([C@H]5C[C@@H]6CC[C@H]5C6)c4n3)cc2)CC1` [compound 88], the IC50 on AURORA A is 1.58 µM; at AURORA B it was above 10 µM; on CDK4/cyclinD1 it was 2 µM.

Take `CN1CCN(c2ccc(Nc3ncc4c(n3)N(C3CCCCC3)C(=O)C4)cc2)CC1` [compound 89]: the IC50 is 1.58 µM at AURORA A, 3.16 µM at AURORA B and 0.316 µM on CDK4/cyclinD1.

For the compound `O=c1[nH]n(C2CCCC2)c2nc(Nc3ccc(N4CCC(CCCO)CC4)cc3)ncc12` [compound 92], the results for the IC50 (in experiment [1]; at AURORA B; at CDK4/cyclinD1) were 2.51 µM, above 10 µM and 6.31 µM, respectively.

For `O=C(NC1CCOCC1)c1ccc(Nc2ncc3cnn(C4CCCCC4)c3n2)cc1` [compound 95], the IC50 at AURORA A is 0.126 µM; at AURORA B it was 0.631 µM; at CDK4/cyclinD1, 0.794 µM.

Regarding `O=C(NCCN1CCOCC1)c1ccc(Nc2ncc3cnn(C4CCCCC4)c3n2)cc1` [compound 96], the IC50 is 0.1 µM on AURORA A, 1.26 µM at AURORA B and 0.631 µM at CDK4/cyclinD1.

Regarding `COCCCN1CCC(NC(=O)c2ccc(Nc3ncc4cnn(C5CCCCC5)c4n3)cc2)CC1` [compound 97], the values for the IC50 at AURORA A, at AURORA B and at CDK4/cyclinD1 were 0.398 µM, 0.501 µM and 0.631 µM, respectively.
